Data on 14 compounds can be found in patent US20260078103A1, “ISOQUINOLONES AS PI3K INHIBITORS” (OnKure, Inc., priority 2022, published 2026).

The test system of the first assay is phosphorylation of AKT (pAKT) in T47D cells expressing mutant PI3Ka (H1047R). The experiment in a line: In vitro cell pAKT (Ser473) HTRF, T47D cells. Format: cell-based. The following applies: cellular pAKT, T47D cells, mutant PI3Ka (H1047R), 6 hours; read-out: Avg T-47D IC50. The gist of the method: (§1)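 T47D cells (RPMI, 10% FBS, 0.2 units/mL insulin) or SKBR3 cells (McCoy's 5a, 10% FBS) were seeded onto 10-point compound dilutions and incubated 6 h at 37 °C. After lysis, pAKT was detected overnight by HTRF (Eu cryptate/d2). IC50 was fitted from % inhibition relative to 0.1% DMSO and 10 uM alpelisib controls.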
Turning to `Cc1cc(C(C)Nc2ccc(Cl)nc2C(=O)O)c2cc(N3Cc4ccc(F)cc4C3)n(C)c(=O)c2c1` (single isomer, unassigned) [Example 127], the IC50 was > 15 µM.
The same measure, in the same setting: the value for `Cc1cc(C(C)Nc2ccc(Cl)nc2C(=O)O)c2cc(N3Cc4ccc(F)cc4C3)n(C)c(=O)c2c1` (single isomer, unassigned) [Example 128] was 0.001 to 0.5 µM; that for `Cc1cc(C(C)Nc2ccccc2C(=O)O)c2cc(N3CCN(C(=O)OC(C)C)CC3)n(C)c(=O)c2c1` (single isomer, unassigned) [Example 131] was > 15 µM; that for `CCOc1ccc(-c2cc3c(C(C)Nc4ccccc4C(=O)O)cc(C)cc3c(=O)n2C)cn1` (single isomer, unassigned) [Example 132] was 0.001 to 0.5 µM.
On the same count and under the same terms, the value for `CCOc1ccc(-c2cc3c(C(C)Nc4ccccc4C(=O)O)cc(C)cc3c(=O)n2C)cn1` (single isomer, unassigned) [Example 133] was > 15 µM; that for `CC(=O)N1CCC2(CC1)CCN(c1cc3c(C(C)Nc4ccccc4C(=O)O)cc(C)cc3c(=O)n1C)CC2` (single isomer, unassigned) [Example 135] was > 15 µM.
The same measure, in the same setting: the value for `CC(=O)N1CCC2(CC1)CCN(c1cc3c(C(C)Nc4ccccc4C(=O)O)cc(C)cc3c(=O)n1C)CC2` (single isomer, unassigned) [Example 136] was 0.001 to 0.5 µM; that for `Cc1cc(C(C)Nc2ccccc2C(=O)O)c2cc(N3CCN4CCC[C@H]4C3)n(C)c(=O)c2c1` (single isomer, unassigned) [Example 138] was > 15 µM.
Consider `Cc1cc(C(C)Nc2ccccc2C(=O)O)c2cc(N3CCN4CCC[C@H]4C3)n(C)c(=O)c2c1` (single isomer, unassigned) [Example 139], for which the IC50 was 0.5 to 2 µM.
`Cc1cc(C(C)Nc2ccccc2C(=O)O)c2cc(N3CCN4C(=O)OC[C@H]4C3)n(C)c(=O)c2c1` (single isomer, unassigned) [Example 141]: the IC50 is > 15 µM.
For the compound `Cc1cc(C(C)Nc2ccccc2C(=O)O)c2cc(N3CCN4C(=O)OC[C@H]4C3)n(C)c(=O)c2c1` (single isomer, unassigned) [Example 142], the half-inhibitory concentration (IC50) lay in the range of 2 to 15 µM.
On the same count and under the same terms, the value for `Cc1cc(C(C)Nc2ccccc2C(=O)O)c2cc(C#Cc3cccc(Cl)c3)n(C)c(=O)c2c1` (single isomer, unassigned) [Example 143] was > 15 µM; that for `Cc1cc(C(C)Nc2ccccc2C(=O)O)c2cc(C#Cc3cccc(Cl)c3)n(C)c(=O)c2c1` (single isomer, unassigned) [Example 144] was 0.5 to 2 µM.
On the same count and under the same terms, the value for `Cc1cc(C(C)Nc2ccccc2C(=O)O)c2cc(N3CCN(c4ccc(C)nc4)CC3)n(C)c(=O)c2c1` (single isomer, unassigned) [Example 146] was > 15 µM.

The next assay deals with SKBR3 cells express WT PI3Ka. The experiment in a line: In vitro cell proliferation, SKBR3 cells (CellTiter-Glo). Type of assay: cell-based. The note with it: Homo sapiens, SK-BR-3, 72 h, inhibition of proliferation. The gist of the method: (§2)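 T47D (PI3Kα H1047R; RPMI, 10% FBS, insulin 0.2 units/mL) or SKBR3 (WT PI3Kα; McCoys 5a, 10% FBS) cells seeded at 1,500 cells/well on 10-point compound dilutions, grown 72 h at 37 °C. CellTiter-Glo luminescence; inhibition normalised to 0.1% DMSO and 10 uM alpelisib, EC50 from four-parameter fit.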
With `CCOc1ccc(-c2cc3c(C(C)Nc4ccccc4C(=O)O)cc(C)cc3c(=O)n2C)cn1` (single isomer, unassigned) [Example 132], the EC50 is > 15 µM.
Regarding `Cc1cc(C(C)Nc2ccccc2C(=O)O)c2cc(N3CCN4CCC[C@H]4C3)n(C)c(=O)c2c1` (single isomer, unassigned) [Example 138], the EC50 was > 15 µM.
Same read-out and setting: the value for `Cc1cc(C(C)Nc2ccccc2C(=O)O)c2cc(N3CCN4C(=O)OC[C@H]4C3)n(C)c(=O)c2c1` (single isomer, unassigned) [Example 141] was > 15 µM; that for `Cc1cc(C(C)Nc2ccccc2C(=O)O)c2cc(C#Cc3cccc(Cl)c3)n(C)c(=O)c2c1` (single isomer, unassigned) [Example 143] was > 15 µM.

Staying with this assay, now noted: inhibition of proliferation, 72 hours.
For `Cc1cc(C(C)Nc2ccc(Cl)nc2C(=O)O)c2cc(N3Cc4ccc(F)cc4C3)n(C)c(=O)c2c1` (single isomer, unassigned) [Example 127], the EC50 was > 15 µM.
As for `Cc1cc(C(C)Nc2ccc(Cl)nc2C(=O)O)c2cc(N3Cc4ccc(F)cc4C3)n(C)c(=O)c2c1` (single isomer, unassigned) [Example 128], the EC50 fell in the range of 2 to 15 µM.
Consider `Cc1cc(C(C)Nc2ccccc2C(=O)O)c2cc(N3CCN(C(=O)OC(C)C)CC3)n(C)c(=O)c2c1` (single isomer, unassigned) [Example 131], for which the EC50 is > 15 µM.
Same read-out and setting: then `CCOc1ccc(-c2cc3c(C(C)Nc4ccccc4C(=O)O)cc(C)cc3c(=O)n2C)cn1` (single isomer, unassigned) [Example 133], with > 15 µM.
As to `CC(=O)N1CCC2(CC1)CCN(c1cc3c(C(C)Nc4ccccc4C(=O)O)cc(C)cc3c(=O)n1C)CC2` (single isomer, unassigned) [Example 135], the EC50 is > 15 µM.
Still for that read-out and setting: then `CC(=O)N1CCC2(CC1)CCN(c1cc3c(C(C)Nc4ccccc4C(=O)O)cc(C)cc3c(=O)n1C)CC2` (single isomer, unassigned) [Example 136], with 2 to 15 µM; and `Cc1cc(C(C)Nc2ccccc2C(=O)O)c2cc(N3CCN4CCC[C@H]4C3)n(C)c(=O)c2c1` (single isomer, unassigned) [Example 139], with > 15 µM.
Same read-out and setting: the value for `Cc1cc(C(C)Nc2ccccc2C(=O)O)c2cc(N3CCN4C(=O)OC[C@H]4C3)n(C)c(=O)c2c1` (single isomer, unassigned) [Example 142] was > 15 µM; that for `Cc1cc(C(C)Nc2ccccc2C(=O)O)c2cc(C#Cc3cccc(Cl)c3)n(C)c(=O)c2c1` (single isomer, unassigned) [Example 144] was > 15 µM; that for `Cc1cc(C(C)Nc2ccccc2C(=O)O)c2cc(N3CCN(c4ccc(C)nc4)CC3)n(C)c(=O)c2c1` (single isomer, unassigned) [Example 146] was > 15 µM.

A further assay has as its system T47D cells expressing mutant PI3Ka (H1047R). In words: In vitro cell proliferation, T47D cells (CellTiter-Glo). The note with it: Homo sapiens, T47D, 72 h, inhibition of proliferation, read-out: Avg T-47D EC50. Format: cell-based. The gist of the method: as §2
For `Cc1cc(C(C)Nc2ccccc2C(=O)O)c2cc(C#Cc3cccc(Cl)c3)n(C)c(=O)c2c1` (single isomer, unassigned) [Example 143], the EC50 is > 15 µM.

The assay is the same for the next values; noted with them: inhibition of proliferation, 72 hours, read-out: Avg T-47D EC50.
`Cc1cc(C(C)Nc2ccc(Cl)nc2C(=O)O)c2cc(N3Cc4ccc(F)cc4C3)n(C)c(=O)c2c1` (single isomer, unassigned) [Example 127]: the EC50 is 2 to 15 µM.
Same read-out and setting: the value for `Cc1cc(C(C)Nc2ccc(Cl)nc2C(=O)O)c2cc(N3Cc4ccc(F)cc4C3)n(C)c(=O)c2c1` (single isomer, unassigned) [Example 128] was 0.001 to 0.5 µM.
Still for that read-out and setting: then `Cc1cc(C(C)Nc2ccccc2C(=O)O)c2cc(N3CCN(C(=O)OC(C)C)CC3)n(C)c(=O)c2c1` (single isomer, unassigned) [Example 131], with 2 to 15 µM.
The same measure, in the same setting: then `CCOc1ccc(-c2cc3c(C(C)Nc4ccccc4C(=O)O)cc(C)cc3c(=O)n2C)cn1` (single isomer, unassigned) [Example 132], with 0.001 to 0.5 µM; and `CCOc1ccc(-c2cc3c(C(C)Nc4ccccc4C(=O)O)cc(C)cc3c(=O)n2C)cn1` (single isomer, unassigned) [Example 133], with 2 to 15 µM; and `CC(=O)N1CCC2(CC1)CCN(c1cc3c(C(C)Nc4ccccc4C(=O)O)cc(C)cc3c(=O)n1C)CC2` (single isomer, unassigned) [Example 135], with 2 to 15 µM.
Regarding `CC(=O)N1CCC2(CC1)CCN(c1cc3c(C(C)Nc4ccccc4C(=O)O)cc(C)cc3c(=O)n1C)CC2` (single isomer, unassigned) [Example 136], the EC50 is 0.001 to 0.5 µM.
The same measure, in the same setting: then `Cc1cc(C(C)Nc2ccccc2C(=O)O)c2cc(N3CCN4CCC[C@H]4C3)n(C)c(=O)c2c1` (single isomer, unassigned) [Example 138], with > 15 µM.
Same read-out and setting: the value for `Cc1cc(C(C)Nc2ccccc2C(=O)O)c2cc(N3CCN4CCC[C@H]4C3)n(C)c(=O)c2c1` (single isomer, unassigned) [Example 139] was 0.5 to 2 µM; that for `Cc1cc(C(C)Nc2ccccc2C(=O)O)c2cc(N3CCN4C(=O)OC[C@H]4C3)n(C)c(=O)c2c1` (single isomer, unassigned) [Example 141] was > 15 µM; that for `Cc1cc(C(C)Nc2ccccc2C(=O)O)c2cc(N3CCN4C(=O)OC[C@H]4C3)n(C)c(=O)c2c1` (single isomer, unassigned) [Example 142] was 0.5 to 2 µM.
Same read-out and setting: then `Cc1cc(C(C)Nc2ccccc2C(=O)O)c2cc(C#Cc3cccc(Cl)c3)n(C)c(=O)c2c1` (single isomer, unassigned) [Example 144], with > 15 µM.
`Cc1cc(C(C)Nc2ccccc2C(=O)O)c2cc(N3CCN(c4ccc(C)nc4)CC3)n(C)c(=O)c2c1` (single isomer, unassigned) [Example 146]: the EC50 lay within 2 to 15 µM.

The subject of another assay is phosphorylation of AKT (pAKT) in SKBR3 cells express WT PI3Ka. In words: In vitro cell pAKT (Ser473) HTRF, SKBR3 cells. Format: cell-based. The following applies: Homo sapiens, SK-BR-3, 6 h, cellular pAKT. The gist of the method:
as §1
On to `CCOc1ccc(-c2cc3c(C(C)Nc4ccccc4C(=O)O)cc(C)cc3c(=O)n2C)cn1` (single isomer, unassigned) [Example 132], for which the IC50 was > 15 µM.
Consider `Cc1cc(C(C)Nc2ccccc2C(=O)O)c2cc(N3CCN4CCC[C@H]4C3)n(C)c(=O)c2c1` (single isomer, unassigned) [Example 138], for which the IC50 is > 15 µM.
Still for that read-out and setting: the value for `Cc1cc(C(C)Nc2ccccc2C(=O)O)c2cc(N3CCN4C(=O)OC[C@H]4C3)n(C)c(=O)c2c1` (single isomer, unassigned) [Example 141] was > 15 µM; that for `Cc1cc(C(C)Nc2ccccc2C(=O)O)c2cc(C#Cc3cccc(Cl)c3)n(C)c(=O)c2c1` (single isomer, unassigned) [Example 143] was > 15 µM.

Still in this assay, the particulars now being: cellular pAKT, 6 hours.
For the compound `Cc1cc(C(C)Nc2ccc(Cl)nc2C(=O)O)c2cc(N3Cc4ccc(F)cc4C3)n(C)c(=O)c2c1` (single isomer, unassigned) [Example 127], the IC50 is > 15 µM.
Still for that read-out and setting: then `Cc1cc(C(C)Nc2ccc(Cl)nc2C(=O)O)c2cc(N3Cc4ccc(F)cc4C3)n(C)c(=O)c2c1` (single isomer, unassigned) [Example 128], with 2 to 15 µM; and `Cc1cc(C(C)Nc2ccccc2C(=O)O)c2cc(N3CCN(C(=O)OC(C)C)CC3)n(C)c(=O)c2c1` (single isomer, unassigned) [Example 131], with > 15 µM.
`CCOc1ccc(-c2cc3c(C(C)Nc4ccccc4C(=O)O)cc(C)cc3c(=O)n2C)cn1` (single isomer, unassigned) [Example 133]: the IC50 is > 15 µM.
The same measure, in the same setting: then `CC(=O)N1CCC2(CC1)CCN(c1cc3c(C(C)Nc4ccccc4C(=O)O)cc(C)cc3c(=O)n1C)CC2` (single isomer, unassigned) [Example 135], with > 15 µM.
On the same count and under the same terms, then `CC(=O)N1CCC2(CC1)CCN(c1cc3c(C(C)Nc4ccccc4C(=O)O)cc(C)cc3c(=O)n1C)CC2` (single isomer, unassigned) [Example 136], with 2 to 15 µM; and `Cc1cc(C(C)Nc2ccccc2C(=O)O)c2cc(N3CCN4CCC[C@H]4C3)n(C)c(=O)c2c1` (single isomer, unassigned) [Example 139], with > 15 µM; and `Cc1cc(C(C)Nc2ccccc2C(=O)O)c2cc(N3CCN4C(=O)OC[C@H]4C3)n(C)c(=O)c2c1` (single isomer, unassigned) [Example 142], with > 15 µM.
Still for that read-out and setting: the value for `Cc1cc(C(C)Nc2ccccc2C(=O)O)c2cc(C#Cc3cccc(Cl)c3)n(C)c(=O)c2c1` (single isomer, unassigned) [Example 144] was > 15 µM.
In the case of `Cc1cc(C(C)Nc2ccccc2C(=O)O)c2cc(N3CCN(c4ccc(C)nc4)CC3)n(C)c(=O)c2c1` (single isomer, unassigned) [Example 146], the IC50 is > 15 µM.
